Source: US20260250312A1, “ANTIBACTERIAL COMPOUNDS ELIMINATING DORMANT BACTERIAL CELLS” (UNIVERSITÉ D'AIX-MARSEILLE, priority 2022, published 2026)
Values joined by “and” are separate entries in the source; they are usually repeats but may differ in a detail not shown here. Equal entries are not always repeated.

Columns and labels:
[1] = test system: Pseudomonas aeruginosa (ATCC27853); experiment: Microdilution MIC assay (CLSI-based), P. aeruginosa; format: cell-based; details: Pseudomonas aeruginosa, ATCC27853, 20 h, 20 hours incubation at 35-37° C., MHB; read-out: Minimum inhibitory concentration P. aeruginosa ATCC27853
Procedure, shortened: (§1)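 Broth microdilution per modified CLSI guidelines in Mueller Hinton broth, 200 μL, inoculum ca. 5×10^5 CFU/mL; compounds tested as salts, twofold dilutions from 0.2 mg/mL, in triplicate. MIC determined from OD at 620 nm after incubation.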

[2] = test system: Staphylococcus aureus (ATCC25923); experiment: Microdilution MIC assay (CLSI-based), S. aureus; format: cell-based; details: Staphylococcus aureus, ATCC25923, 20 h, 20 hours incubation at 35-37° C., MHB; read-out: Minimum inhibitory concentration S. aureus ATCC25923
Procedure, shortened: as §1

CHO-K1 cells = experiment: WST1 cytotoxicity test; format: cell-based, Chinese hamster; details: Cricetulus griseus, CHO-K1, 24 h, WST1, 24 hours at 37° C.; read-out: IC50 CHO
Procedure, shortened: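 CHO-K1 cells pre-cultured 24 h, then exposed 24 h at 37 °C to increasing compound concentrations. Viability read as WST-1 formazan absorbance at 450 nm after 20 min; dose-response fitted by nonlinear regression.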

[3] = test system: Enterococcus faecalis (ATCC29212); experiment: Microdilution MIC assay (CLSI-based), E. faecalis; format: cell-based; details: Enterococcus faecalis, ATCC29212, 20 h, 20 hours incubation at 35-37° C., MHB; read-out: Minimum inhibitory concentration E. faecalis ATCC29212
Procedure, shortened: as §1

[4] = test system: Escherichia coli (ATCC28922); experiment: Microdilution MIC assay (CLSI-based), E. coli; format: cell-based; details: Escherichia coli, ATCC28922, 20 h, 20 hours incubation at 35-37° C., MHB; read-out: Minimum inhibitory concentration E. coli ATCC28922
Procedure, shortened: as §1

SMILES | MIC [1] | MIC [2] | IC50 (CHO-K1 cells) | MIC [3] | MIC [4]
COC(=O)[C@H](NC(=O)CC[C@@H](C)[C@H]1CCC2C3C(C[C@H](O)[C@@]21C)[C@@]1(C)CC[C@H](NCCCNCCCCNCCCN)C[C@H]1C[C@H]3O)C(C)C (stereo partly drawn) [Compound S058, methyl ((4R)-4-((3S,5S,7R,10S,12S,13R,17R)-3-((3-((4-((3-aminopropyl)amino)butyl)amino)propyl)amino)-7,12-dihydroxy-10,13-dimethylhexadecahydro-1H-cyclopenta[a]phenanthren-17-yl)pentanoyl)-D-valinate] | 50 µM and 32 µg/mL | 12.5 µM and 8 µg/mL | 6.55 µM and 4.63 µg/mL | 100 µM and 64 µg/mL | 100 µM and 64 µg/mL
COC(=O)[C@H](CC(C)C)NC(=O)CC[C@@H](C)[C@H]1CCC2C3C(CC[C@@]21C)[C@@]1(C)CC[C@H](NCCCNCCNCCCN)C[C@H]1C[C@H]3O (stereo partly drawn) [Compound S035, methyl ((4R)-4-((3S,5S,7R,10S,13R,17R)-3-((3-((2-((3-aminopropyl)amino)ethyl)amino)propyl)amino)-7-hydroxy-10,13-dimethylhexadecahydro-1H-cyclopenta[a]phenanthren-17-yl)pentanoyl)-L-leucinate] | 12.5 µM and 8 µg/mL | 12.5 µM and 8 µg/mL | 45.2 µM and 30.6 µg/mL | 12.5 µM and 8 µg/mL | 12.5 µM and 8 µg/mL
COC(=O)[C@H](CC(C)C)NC(=O)CC[C@@H](C)[C@H]1CCC2C3C(CC[C@@]21C)[C@@]1(C)CC[C@H](NCCCNCCCCNCCCN)C[C@H]1C[C@H]3O (stereo partly drawn) [Compound S036, methyl ((4R)-4-((3S,5S,7R,10S,13R,17R)-3-((3-((4-((3-aminopropyl)amino)butyl)amino)propyl)amino)-7-hydroxy-10,13-dimethylhexadecahydro-1H-cyclopenta[a]phenanthren-17-yl)pentanoyl)-L-leucinate] | 12.5 µM and 8 µg/mL | 50 µM and 32 µg/mL | 50.5 µM and 35.6 µg/mL | 6.25 µM and 4 µg/mL | 6.25 µM and 4 µg/mL
COC(=O)[C@H](C)NC(=O)CC[C@@H](C)[C@H]1CCC2C3C(CC[C@@]21C)[C@@]1(C)CC[C@H](NCCCNCCCCNCCCN)C[C@H]1C[C@H]3O (stereo partly drawn) [Compound S038, methyl ((4R)-4-((3S,5S,7R,10S,13R,17R)-3-((3-((4-((3-aminopropyl)amino)butyl)amino)propyl)amino)-7-hydroxy-10,13-dimethylhexadecahydro-1H-cyclopenta[a]phenanthren-17-yl)pentanoyl)-L-alaninate] | 12.5 µM and 8 µg/mL | 3.13 µM and 2 µg/mL | 45 µM and 29.8 µg/mL | 6.25 µM and 4 µg/mL | 6.25 µM and 4 µg/mL
COC(=O)[C@H](Cc1ccccc1)NC(=O)CC[C@@H](C)[C@H]1CCC2C3C(CC[C@@]21C)[C@@]1(C)CC[C@H](NCCCCN)C[C@H]1C[C@H]3O (stereo partly drawn) [Compound S030, methyl ((4R)-4-((3S,5S,7R,10S,13R,17R)-3-((4-aminobutyl)amino)-7-hydroxy-10,13-dimethylhexadecahydro-1H-cyclopenta[a]phenanthren-17-yl)pentanoyl)-L-phenylalaninate] | > 200 µM and > 124 µg/mL | 100 µM and 64 µg/mL | > 500 µM and > 311 µg/mL | 200 µM and 124 µg/mL | 50 µM and 32 µg/mL
COC(=O)[C@@H](NC(=O)CC[C@@H](C)[C@H]1CCC2C3C(CC[C@@]21C)[C@@]1(C)CC[C@H](NCCCN(C)CCCN)C[C@H]1C[C@H]3O)C(C)C (stereo partly drawn) [Compound S026, methyl ((4R)-4-((3S,5S,7R,10S,13R,17R)-3-((3-((3-aminopropyl)(methyl)amino)propyl)amino)-7-hydroxy-10,13-dimethylhexadecahydro-1H-cyclopenta[a]phenanthren-17-yl)pentanoyl)-L-valinate] | 200 µM and 126 µg/mL | 25 µM and 16 µg/mL | 11.4 µM and 7.2 µg/mL | 50 µM and 32 µg/mL | 25 µM and 16 µg/mL
